Measured values taken from paper PMC5931096, “A Phase I study of the novel immunomodulatory agent PG545 (pixatimod) in subjects with advanced solid tumours” (British Journal of Cancer, 2018).

Experiment: Phase I dose-escalation: safety, tolerability, DLT and MTD of weekly 1-h IV infusion
Assay type: in vivo
Experimental: The study was an open-label, multicentre, phase 1 dose-escalation study using a 3 + 3 design. The primary objective was to determine the MTD of weekly administered PG545 via IV infusion. Secondary objectives were to characterize safety, tolerability, clinical activity, PK and PD biomarkers.
Patients continued treatment until disease progression, unacceptable toxicity or withdrawal (either voluntarily or investigator-decision).
All patients were assessed for safety, those who received at least one dose of PG545 were evaluated for efficacy. Safety assessment included the incidence of all adverse events (AEs), irrespective of relationship to study drug, according to the National Cancer Institute Common Terminology Criteria for Adverse Events, version 4.0, and the incidence of patients experiencing dose modifications and/or premature discontinuation of study drug. Dose-limiting toxicities (DLTs) used to determine the MTD were defined as occurring during Cycle 1 of treatment only and related to PG545 according to investigator assessment. If no DLT occurred in the first three subjects, the next three-subject cohort was enrolled at the next highest available dose level. If a single DLT occurred, an additional three subjects was enrolled at the same dose level. Dose escalation continued until two subjects of the cohort experienced a DLT; this was defined as the toxic dose level. The dose-escalation phase was completed and MTD determined by reducing the dose to the next lowest dose compared to the toxic dose and expanding this cohort to at least 6 subjects.

[1] = Moderate, Unrelated, Safety Set

## CC(C)CCC[C@@H](C)[C@H]1CC[C@H]2[C@@H]3CC[C@H]4C[C@@H](O[C@@H]5O[C@H](COS(=O)(=O)O)[C@@H](O[C@H]6O[C@H](COS(=O)(=O)O)[C@@H](O[C@H]7O[C@H](COS(=O)(=O)O)[C@@H](O[C@H]8O[C@H](COS(=O)(=O)O)[C@@H](OS(=O)(=O)O)[C@H](OS(=O)(=O)O)[C@H]8OS(=O)(=O)O)[C@H](OS(=O)(=O)O)[C@H]7OS(=O)(=O)O)[C@H](OS(=O)(=O)O)[C@H]6OS(=O)(=O)O)[C@H](OS(=O)(=O)O)[C@H]5OS(=O)(=O)O)CC[C@]4(C)[C@H]3CC[C@]12C [PG545]
[1]
  TEAE: General disorders and administration site conditions: 5 (21.7%)
  TEAE: Groin pain: 1 (4.3%)
  TEAE: Headache: 2 (8.7%)
  TEAE: Hypoalbuminaemia: 1 (4.3%)
  TEAE: Infections and infestations: 1 (4.3%)
  TEAE: Insomnia: 1 (4.3%)
  TEAE: Intestinal obstruction: 1 (4.3%)
  TEAE: Investigations: 3 (13.0%)
  TEAE: Malaise: 1 (4.3%)
  TEAE: Metabolism and nutritional disorders: 4 (17.4%)
  TEAE: Musculoskeletal and connective tissue disorders: 6 (26.1%)
  TEAE: Musculoskeletal pain: 1 (4.3%)
  TEAE: Nausea: 2 (8.7%)
  TEAE: Nervous system disorders: 2 (8.7%)
  TEAE: Neutrophil count increased: 1 (4.3%)
  TEAE: Pain in extremity: 1 (4.3%)
  TEAE: Platelet count increased: 1 (4.3%)
  TEAE: Psychiatric disorders: 2 (8.7%)
  TEAE: Respiratory, thoracic and mediastinal disorders: 4 (17.4%)
  TEAE: Upper respiratory tract infection: 1 (4.3%)
  TEAE: White blood cell count increased: 1 (4.3%)
Overall, N = 23
  Acute pulmonary oedema, related AE leading to discontinuation: 1 (4) n (%)
  Acute pulmonary oedema, related serious AE: 1 (4) n (%)
  Acute pulmonary oedema, related severe AE: 1 (4) n (%)
  Blood cholesterol increased, related severe AE: 1 (4) n (%)
  Blood cholesterol increased, treatment-related AE: 2 (9) n (%)
  Blood pressure increased, related severe AE: 1 (4) n (%)
  Chills, related AE leading to discontinuation: 1 (4) n (%)
  Chills, related severe AE: 2 (9) n (%)
  Chills, treatment-related AE: 5 (22) n (%)
  Decreased appetite, treatment-related AE: 5 (22) n (%)
  Diarrhoea, treatment-related AE: 4 (17) n (%)
  Epistaxis, related AE leading to discontinuation: 1 (4) n (%)
  Epistaxis, related serious AE: 1 (4) n (%)
  Epistaxis, related severe AE: 1 (4) n (%)
  Fatigue, related severe AE: 2 (9) n (%)
  Fatigue, treatment-related AE: 5 (22) n (%)
  Headache, treatment-related AE: 2 (9) n (%)
  Hypercholesterolemia, treatment-related AE: 2 (9) n (%)
  Hyperlipidaemia, related severe AE: 1 (4) n (%)
  Hypertension, related AE leading to discontinuation: 1 (4) n (%)
  Hypertension, related serious AE: 1 (4) n (%)
  Hypertension, related severe AE: 5 (22) n (%)
  Hypertension, treatment-related AE: 6 (26) n (%)
  Hypovolaemia, related serious AE: 1 (4) n (%)
  Infusion-related reaction, related serious AE: 1 (4) n (%)
  Infusion-related reaction, related severe AE: 1 (4) n (%)
  Infusion-related reaction, treatment-related AE: 5 (22) n (%)
  Injection site reaction, treatment-related AE: 2 (9) n (%)
  Nausea, treatment-related AE: 5 (22) n (%)
  Pyrexia, related AE leading to discontinuation: 1 (4) n (%)
  Pyrexia, related serious AE: 1 (4) n (%)
  Pyrexia, related severe AE: 1 (4) n (%)
  Pyrexia, treatment-related AE: 5 (22) n (%)
Severe, Related, Safety Set
  TEAE: Acute pulmonary oedema: 1 (4.3%)
  TEAE: At least one event: 11 (47.8%)
  TEAE: Blood cholesterol increased: 1 (4.3%)
  TEAE: Blood pressure increased: 1 (4.3%)
  TEAE: Chills: 2 (8.7%)
  TEAE: Epistaxis: 1 (4.3%)
  TEAE: Fatigue: 2 (8.7%)
  TEAE: General disorders and administration site conditions: 4 (17.5%)
  TEAE: Hyperlipidaemia: 1 (4.3%)
  TEAE: Hypertension: 5 (21.7%)
  TEAE: Infusion related reaction: 1 (4.3%)
  TEAE: Injury, poisoning and procedural complications: 1 (4.3%)
  TEAE: Investigations: 2 (8.7%)
  TEAE: Metabolism and nutritional disorders: 1 (4.3%)
  TEAE: Pyrexia: 1 (4.3%)
  TEAE: Respiratory, thoracic and mediastinal disorders: 2 (8.7 %)
  TEAE: Vascular disorders: 5 (21.7%)
Severe, Unrelated, Safety Set
  TEAE: AST increased: 1 (4.3%)
  TEAE: Anaemia: 1 (4.3%)
  TEAE: At least one event: 7 (30.4%)
  TEAE: Blood ALP increased: 2 (8.7%)
  TEAE: Blood and lymphatic system disorders: 1 (4.3%)
  TEAE: Chest pain: 1 (4.3%)
  TEAE: Constipation: 1 (4.3%)
  TEAE: Dehydration: 1 (4.3%)
  TEAE: Dysuria: 1 (4.3%)
  TEAE: GGT increased: 1 (4.3%)
  TEAE: Gastrointestinal disorders: 2 (8.7 %)
  TEAE: General disorders and administration site conditions: 1 (4.3%)
  TEAE: Hyponatraemia: 1 (4.3%)
  TEAE: Infections and infestations: 1 (4.3%)
  TEAE: Investigations: 2 (8.7%)
  TEAE: Lower respiratory tract infection: 1 (4.3%)
  TEAE: Metabolism and nutritional disorders: 2 (8.7%)
  TEAE: Renal and urinary disorders: 1 (4.3%)
  TEAE: Small intestinal obstruction: 1 (4.3%)
All cohorts
  Serious adverse events (SAEs), number: 12
  Treatment-related hypertension, occurrences: six
In vivo
  SAEs resulting in withdrawal or discontinuation: Five
Investigator assessment
  SAEs possibly, likely or certainly related to PG545: Six
Of the 12 SAEs
  SAEs graded mild: one
  SAEs graded severe: nine
Of the 12 SAEs, death due to disease progression
  SAEs graded fatal: two
transient
  Duration of hypertensive episodes: < 24 h
Weekly 1-h IV infusion
  Maximum-tolerated dose (MTD): 100 mg
  Toxic dose: 150 mg
